According to patent publication US20230088704A1, “A PHARMACEUTICAL COMBINATION FOR THE TREATMENT OF A CANCER” (ABILITY PHARMACEUTICALS S.L., priority 2020, published 2023):

How the values were obtained:
PDL1 = PDL1 expression in cancer cells by flow cytometry (Example 6.2); type: cell-based, human; conditions: ABTL0812 100 μM, 48 hours
Description: Methods: Human cancer cell lines were incubated with 100 μM of ABTL0812 during 48 hours and collected for staining with anti-PDL1 antibody labeled with a fluorophore. After staining of cells with anti-PDL1 antibody, cells were run on Flow Cytometry (Facs Canto) to analyzed PDL1 levels in cancer cells. Additionally, we incubated Panc-1 cells with ABTL0812 (50 μM), IFNγ (2.5 ng/ml), a master regulator of PDL1 expression or a combination with both. Then, cells were collected, stained with anti-PDL1 antibody and analyzed by Flow Cytometry for the expression of PDL1.

PD1 = PD1 expression in primary T cells by flow cytometry; type: cell-based, human; conditions: 6 hours
Description: Methods: Human PBMCs were purified from peripheral blood of healthy donors using Ficoll and cultured in vitro. Human T cells were activated by incubation with IL-2 and CD3 and CD28 antibodies for 10 days and then treated with ABTL0812 for 6 hours. Finally, levels of PD1 expressed in the membrane of T cells was analyzed by flow cytometry using specific antibodies. Results are indicated as % of positive cells and show the average of three independent experiments (t-test **p<0.01 and ***p<0.001).

[1] = test system: human immortalized THP1 macrophages and human primary macrophages; assay: Secretome of THP1 and primary macrophages, cytokine antibody array; type: cell-based
Description: Methods: Whole blood was collected from healthy donors, and circulating monocytes were purified using immunomagnetic separation. Monocytes were selected using anti-CD14 antibodies bound to magnetic beads, which were retained in the magnetic column and further eluted for culturing in vitro. Monocytes were differentiated to macrophages incubating with M-CSF1 at 20 ng/mL for 7 days. Once primary monocytes were differentiated to macrophages, these were polarized to M1 by incubation with LPS for 6 or 24 hours in the presence of ABTL0812 (50 or 100 μM). In parallel, differentiated macrophages were polarized to M2 by incubation with IL-4 and IL-13 for 24 hours in the presence of ABTL0812 (50 μM). THP-1 monocytes growing in suspension were differentiated to macrophages by incubation with PMA for 24 hours, inducing their attachment to the plates. Once THP-1 were differentiated to macrophages, these were polarized to M1 by incubation with LPS for 6 or 24 hours in the presence of ABTL0812 (50 μM). In parallel, differentiated macrophages were polarized to M2 by incubation with IL-4 and IL-13 for 24 hours in the presence of ABTL0812 (50 μM). The culture media from ABTL0812 treated M1, M2 and differentiated macrophages (M0) were incubated using the RayBio C-Series Human Cytokine Antibody Array C3 (RayBiotec). Culture media was incubated with a PVDF (Polyvinylidene fluoride) membrane containing antibodies against 42 different cytokines. After incubation of culture media, the membrane was incubated with secondary antibodies and further developed using HRP (Horseradish peroxidase) substrate.

MT5 cells = assay: Syngeneic pancreatic cancer model, ABTL0812 vs anti-PD1; type: in vivo, C57BL6 mice
Description: Methods: MT5 cells are a highly tumorigenic murine cell line mutated in KRAS and p53 initially derived from the pancreas of triple transgenic KRAS-p53-Cre (KPC) mice, carrying pancreatic duc-tal adenocarcinoma. […] C57BL6 mice were injected with 2×10^6 MT5 cells in one flank to induce tumor formation. […] The treatment groups were Vehicle, ABTL0812 and anti-PD1. ABTL0812 was administered by the oral route at 480 mg/kg/day. Anti-PD1 antibody was administered i.p. at 200 μg/dose every three days. Tumor volume and body weight were monitored 3 times a week. At the end of the treatments, mice were euthanized, tumors collected and single cell suspension was obtained by digesting tumors using digestion media containing collagenase and lipase and further processing with trypsin and DNAse. Additionally, spleens from treated mice were collected, minced using a strainer, and single cells were obtained after treatment with trypsin and DNAse. After cell suspensions were obtained, cancer cells and immune cells infiltrated withing tumors were stained using specific antibodies against different immune cell subsets and further analyzed using flow cytometry. The combinations used were: Th1 cells=CD45+ CD4+ CCR4− CXCR3+, Th2 cells=CD45+ CD4+ CCR4+ CXCR3−, Myeloid cells=CD45+ CD11b+ Ly6C+ and NKs cells=CD45+ NK1.1+.

LA1-5S cells = assay: Cell viability (crystal violet), ABTL0812 with cyclophosphamide; type: cell-based; conditions: ABTL0812 30 μM + cyclophosphamide 1, 1.5, 2 μM; 72 hours
Description: Methods: LA1-5S cells were incubated with increasing concentrations of cyclophosphamide (1 μM, 1.5 μM and 2 μM) and a subIC50 fixed concentration of ABTL0812 (30 μM). Cells were treated for 72 hours in IMDM with 0.5% FBS. Cell viability was evaluated by crystal violet assay. Data is presented as mean±SEM of three independent experiments. Statistical analyses were performed according to the T-Test principle with GraphPad Prism® 5.0 software (*p<0.05; **p<0.01; ***p<0.001).

Ishikawa cells = assay: Human endometrial cancer xenograft, ABTL0812 with olaparib; type: in vivo; conditions: ABTL0812 oral 120 mg/kg/day; Olaparib oral 50 mg/kg/day
Description: Methods: Mice were injected with 4×10^6 Ishikawa cells in one flank to induce tumor formation. […] Olaparib was administered by the oral route 50 mg/kg/day. Tumor volume and body weight were monitored 3 times a week.

[2] = test system: endometrial carcinogenesis induced by the deletion of PTEN; assay: Endometrial carcinogenesis induced by PTEN deletion; type: in vivo, mice; conditions: ABTL0812 120 mg/kg daily during 3 weeks
Description: Methods: Mice were injected with tamoxifen to induce PTEN deletion. Three weeks after tamoxifen administration, when animal has developed hyperplasias, animals were administered with ABTL0812 at 120 mg/kg daily or with vehicle during 3 weeks. At that time, vehicle treated animals (6 weeks after tamoxifen injection) develop neoplasias, which are quantified by immunohistochemistry of extracted uterus. After ABTL0812 treatment, animals were sacrificed, uterus extracted in paraffin-embedded for further immunohistochemical analysis by hematoxylin-eosin staining for carcinogenesis evaluation or with anti-CD3 to evaluate T lymphocyte infiltration within tumoral lesions, indicative of tumor microenvironment immunomodulation.

[3] = common in immortalized THP1 cells and in primary macrophages

## CCCCC/C=C\C/C=C\CCCCCCC(O)C(=O)O (centres unmarked) [ABTL0812, COOH—CHOH—(CH2)6—(CH═CH—CH2)2—(CH2)3—CH3]
PDL1; Capan-2 cells
  PDL1 expression, increase from basal levels: 86%
PDL1; MiaPaca2 cells
  PDL1 expression, increase from basal levels: 34%
PD1; activated (IL-2, CD3 and CD28 antibodies) human primary CD4 and CD8 T lymphocytes
  PD1 expression: induces the inhibition of PD1 expression
PD1; non-activated human primary CD4 and CD8 T lymphocytes
  PD1 expression: induces the inhibition of PD1 expression
[1]; ABTL0812 50 or 100 μM
  secreted IL-1β: upregulation
  secreted TNF-α: upregulation
[1]; [3]
  secreted CCL7: inhibited
  secreted CCL8: inhibited
  secreted CCL17: inhibited
  secreted CCL22: inhibited
  secreted IL-10: inhibited
MT5 cells; ABTL0812 oral 480 mg/kg/day, anti-PD1 i.p. 200 μg/dose every three days
  tumor volume: significantly decreasing tumor volume compared with vehicle treatment group
MT5 cells; flow cytometry
  Th1/Th2 ratio in spleen: increase in the Th1/Th2 ratio
MT5 cells; flow cytometry, CD45+ CD11b+ Ly6C+
  Myeloid cells within tumors: increase of Myeloid cells within tumors
MT5 cells; flow cytometry, CD45+ NK1.1+
  percentage of NK cells within tumor: increase in the percentage of NK cells within tumor
LA1-5S cells
  cyclophosphamide cytotoxicity on addition of ABTL0812: significantly increased cyclophosphamide cytotoxicity at 1 μM
Ishikawa cells
  tumor volume: significantly reduced tumor volume
[2]
  development of endometrial intraepithelial neoplasias (EIN): significant reduction in the development of endometrial intraepithelial neoplasias
[2]; anti-CD3 immunohistochemistry
  CD3 T lymphocyte infiltration: induce the infiltration of CD3 T lymphocytes within tumoral lesions
[2]; hematoxylin-eosin staining
  animals with hyperplasias: 80%
